These results are taken from patent US9856262B2, “Analogues of 4H-pyrazolo[1,5-a] benzimidazole compound as PARP inhibitors” (HUBEI BIO-PHARMACEUTICAL INDUSTRIAL TECHNOLOGICAL INSTITUTE …, priority 2014, dated 2018).

The structures appear in SMILES notation.

One test addresses T1, PARP-1 (Homo sapiens, UniProt P09874).
T1 construct: purchased
Put plainly: PARP enzymatic assay (HT Universal Colorimetric PARP1 Assay Kit). As to conditions: read-out: PARP-1 enzymatic inhibition IC50. The test is classed as biochemical. How it is done: PARP Enzymatic Assay (Following the Manual of HT Universal Colorimetric PARP1 Assay Kit).
Histone proteins were coated on a 96-well plate and incubated overnight at 4° C. After be washed 3 times with 200 ul PBST solution, the plate was blocked with a blocking solution and incubated for 30 min at room temperature, and then washed with PBST solution 3 times. A compound to be tested was treated and added to the plate. Thereafter, 20 μl of diluted PARP1 (1 nM) or 20 μl of PARP2 (3 nM) solution was added into the reaction system and incubated for 1 or 2 hours. 50 ul of streptavidin-HRP mixture (1:50) was added into the plate and incubated for 30 min at room temperature. The plate was then washed with three times with PBST buffer. 100 μl of (HRP) (Chemiluminescent substrate A and substrate B (1:1)) was added into the plate, and the plate was immediately read on a microplate reader (Envision, PerkinElmer).

In a further test the test system is HCC1937 cells. Put plainly: Cellular PARylation assay. The test is classed as cell-based. Particulars: Homo sapiens; HCC1937 cells, compound 30 min then 1 mM H2O2 10 min; read-out: cellular PARylation EC50. How it is done: Cellular PARylation Assay
HCC1937 cells were planted into 96 well plates at 4×10^4 cells/well and incubated at 37° C. in an incubator overnight. After being treated with a test compound for 30 min, cells were then treated with 1 mM H2O2 for 10 min. The cells were washed with 200 ul pre-chilled PBS twice and fixed with 100 ul pre-chilled methanol/acetone (7:3) on ice for 30 min. After being air-dried, the plates were blocked using PBS-Tween blocking solution (0.05%) with dissolved 5% nonfat dry milk for 30 min at room temperature. The cells were incubated with anti-PAR antibody 10H (1:100) at room temperature for 1 hour followed by washing with PBS-Tween20 for 3 times; and then added into a blocking solution including goat anti-mouse fluorescein isothiocyanate (FITC)-coupled secondary antibody and 1 μg/mL DAPI to incubate away from light at room temperature for 1 hour. After being washed with PBS-Tween20 for 3 times, the plate was analyzed with a fluorescence microplate counter (Flexstation III, Molecular Device).

T1 sequence (P09874 whole entry): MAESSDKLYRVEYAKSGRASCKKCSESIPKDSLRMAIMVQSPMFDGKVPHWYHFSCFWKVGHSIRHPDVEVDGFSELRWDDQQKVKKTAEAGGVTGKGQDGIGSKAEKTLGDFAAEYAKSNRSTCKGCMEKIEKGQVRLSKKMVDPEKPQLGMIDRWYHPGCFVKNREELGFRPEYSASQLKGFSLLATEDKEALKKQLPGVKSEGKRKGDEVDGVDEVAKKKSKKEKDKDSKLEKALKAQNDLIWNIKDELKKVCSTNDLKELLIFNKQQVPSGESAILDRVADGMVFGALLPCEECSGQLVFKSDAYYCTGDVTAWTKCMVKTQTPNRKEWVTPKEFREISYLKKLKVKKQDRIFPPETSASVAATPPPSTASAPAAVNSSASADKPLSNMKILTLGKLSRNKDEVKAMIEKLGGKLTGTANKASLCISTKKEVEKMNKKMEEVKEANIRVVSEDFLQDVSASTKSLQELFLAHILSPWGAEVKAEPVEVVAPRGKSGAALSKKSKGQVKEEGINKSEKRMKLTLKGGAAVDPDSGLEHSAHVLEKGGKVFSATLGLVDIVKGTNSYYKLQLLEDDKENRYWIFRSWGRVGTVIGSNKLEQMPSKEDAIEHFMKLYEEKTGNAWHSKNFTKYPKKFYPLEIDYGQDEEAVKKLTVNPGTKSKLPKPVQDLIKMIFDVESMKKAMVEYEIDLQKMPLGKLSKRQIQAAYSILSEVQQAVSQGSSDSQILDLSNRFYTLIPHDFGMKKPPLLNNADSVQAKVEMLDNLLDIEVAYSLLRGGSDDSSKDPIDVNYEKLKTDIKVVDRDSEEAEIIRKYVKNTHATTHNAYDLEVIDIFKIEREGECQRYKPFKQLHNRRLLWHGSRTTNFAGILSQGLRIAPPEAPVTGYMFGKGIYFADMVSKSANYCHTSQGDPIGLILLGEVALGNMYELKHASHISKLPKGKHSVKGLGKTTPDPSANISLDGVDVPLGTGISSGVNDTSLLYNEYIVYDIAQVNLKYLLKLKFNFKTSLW

A word on the IC50: it is the concentration that inhibits the measured activity by half. For orientation: EC50 means the concentration giving half of the maximal effect. As to `COCCN1CCC(C)(c2cnn3c2[nH]c2cc(F)cc(C(N)=O)c23)CC1` [Example 69, 6-fluoro-3-(1-(2-methoxyethyl)-4-methylpiperidin-4-yl)-4H-benzo[4,5]imidazo[1,2-b]pyrazole-8-carboxamide], on PARP-1, the IC50 is 1 to 100 nM. For the same compound, the concentration giving a half-maximal response (EC50) in the test with HCC1937 cells is 1 to 100 nM.
As for `CC1(c2cnn3c2[nH]c2cc(F)cc(C(N)=O)c23)CCN(CC2(O)CC2)CC1` [Example 70, 6-fluoro-3-(1-((1-hydroxycyclopropyl)methyl)-4-methylpiperidin-4-yl)-4H-benzo[4,5]imidazo[1,2-b]pyrazole-8-carboxamide], the concentration for half-maximal inhibition (IC50) at PARP-1 was in the range of 1 to 100 nM. The half-maximal effective concentration (EC50) with HCC1937 cells was 1 to 100 nM.
`CC1(CN2CCC(C)(c3cnn4c3[nH]c3cc(F)cc(C(N)=O)c34)CC2)COC1` [Example 71]: the IC50 at PARP-1 lay in the range of 1 to 100 nM. In the test with HCC1937 cells, the concentration for a half-maximal effect (EC50) lay within 1 to 100 nM.
With `COCCCN1CCC(C)(c2cnn3c2[nH]c2cc(F)cc(C(N)=O)c23)CC1` [Example 72, 6-fluoro-3-(1-(3-methoxypropyl)-4-methylpiperidin-4-yl)-4H-benzo[4,5]imidazo[1,2-b]pyrazole-8-carboxamide], the IC50 on PARP-1 was in the range of 1 to 100 nM. In the test on HCC1937 cells, the half-maximal effective concentration (EC50) was 1 to 100 nM.
`CC1(c2cnn3c2[nH]c2cc(F)cc(C(N)=O)c23)CCN(CC2(S(C)(=O)=O)CC2)CC1` [Example 73, 6-fluoro-3-(4-methyl-1-((1-(methylsulfonyl)cyclopropyl)methyl)piperidin-4-yl)-4H-benzo[4,5]imidazo[1,2-b]pyrazole-8-carboxamide]: the IC50 on PARP-1 lay within 1 to 100 nM. Moreover, the EC50 in the test on HCC1937 cells fell in the range of 1 to 100 nM.
As for `CC1(c2cnn3c2[nH]c2cc(F)cc(C(N)=O)c23)CCN(Cc2nccs2)CC1` [Example 74, 6-fluoro-3-(4-methyl-1-(thiazol-2-ylmethyl)piperidin-4-yl)-4H-benzo[4,5]imidazo[1,2-b]pyrazole-8-carboxamide], the half-inhibitory concentration (IC50) on PARP-1 was 1 to 100 nM. Moreover, the EC50 with HCC1937 cells lay in the range of 101 to 1000 nM.
Taken in the same sequence, the figures for `CC1(c2cnn3c2[nH]c2cc(F)cc(C(N)=O)c23)CCN(S(C)(=O)=O)CC1` [Example 75, 6-fluoro-3-(4-methyl-1-(methylsulfonyl)piperidin-4-yl)-4H-benzo[4,5]imidazo[1,2-b]pyrazole-8-carboxamide] were 1 to 100 nM and 101 to 1000 nM.
Taken in the same sequence, the figures for `CC1(c2cnn3c2[nH]c2cc(F)cc(C(N)=O)c23)CCN(C2CC(F)C2)CC1` (stereo not drawn) [Example 76, 6-fluoro-3-(1-(3-fluorocyclobutyl)-4-methylpiperidin-4-yl)-4H-benzo[4,5]imidazo[1,2-b]pyrazole-8-carboxamide] were 1 to 100 nM and 1 to 100 nM.
Taken in the same sequence, the figures for `CC1(c2cnn3c2[nH]c2cc(F)cc(C(N)=O)c23)CCN(Cc2cccs2)CC1` [Example 77, 6-fluoro-3-(4-methyl-1-(thiophen-2-ylmethyl)piperidin-4-yl)-4H-benzo[4,5]imidazo[1,2-b]pyrazole-8-carboxamide] were 1 to 100 nM and 1 to 100 nM.
With `CCN1CCC(CN2CCC(C)(c3cnn4c3[nH]c3cc(F)cc(C(N)=O)c34)CC2)CC1` [Example 78, 3-(1-((1-ethylpiperidin-4-yl)methyl)-4-methylpiperidin-4-yl)-6-fluoro-4H-benzo[4,5]imidazo[1,2-b]pyrazole-8-carboxamide], the half-inhibitory concentration (IC50) at PARP-1 lay within 1 to 100 nM. Further, the concentration for a half-maximal effect (EC50) in the test with HCC1937 cells fell in the range of 1 to 100 nM.
Consider `CN1CC(CN2CCC(C)(c3cnn4c3[nH]c3cc(F)cc(C(N)=O)c34)CC2)C1` [Example 79, 6-fluoro-3-(4-methyl-1-((1-methylazetidin-3-yl)methyl)piperidin-4-yl)-4H-benzo[4,5]imidazo[1,2-b]pyrazole-8-carboxamide], for which the IC50 on PARP-1 lay in the range of 1 to 100 nM. Moreover, in the test with HCC1937 cells, the half-maximal effective concentration (EC50) was 1 to 100 nM.
Turning to `CCOC(=O)C1CC1CN1CCC(C)(c2cnn3c2[nH]c2cc(F)cc(C(N)=O)c23)CC1` (stereo not drawn) [Example 80, ethyl 2-((4-(8-carbamoyl-6-fluoro-4H-benzo[4,5]imidazo[1,2-b]pyrazol-3-yl)-4-methylpiperidin-1-yl)methyl)cyclopropanecarboxylate], the IC50 on PARP-1 fell in the range of 1 to 100 nM. In the test on HCC1937 cells, the EC50 lay in the range of 1 to 100 nM.
